Legend:
[1] = test system: reflex depressor response to colorectal distension; assay: Reflex depressor response to colorectal distension in anesthetised rats (Study 2); type: in vivo, male Sprague-Dawley rats; conditions: for Fall in arterial blood pressure (mean absolute decrease in mean arterial pressure, SEM in brackets) evoked by balloon distension: after MCI-225 3 mg/kg i.v.
Experimental: In Study 2, using intact animals, the ability of a drug to inhibit the reflex depressor response to colorectal distension can be assessed. In this model, an inhibition of the reflex indicates modulation of visceral nociceptive neurotransmission and, therefore, the use of the drug in functional bowel disease (e.g IBS); see Kozlowski et al, 2000, Gut 46, 474-480. Allodynia and visceral pain are important components of functional bowel disease.
Experiments were performed on male Sprague-Dawley rats (250-300 g). Anesthesia was induced with isoflurane (2.5% in oxygen) and maintained with alpha chlorolose (80 mg/kg i.v.). The left carotid artery was cannulated for the measurement of blood pressure and heart rate and the left jugular vein cannulated for drug administration. A tracheal cannula was implanted for artificial respiration if required. A 10 mm long latex balloon was inserted intrarectally so that the tip of the balloon was 20 mm from the anal verge (Kozlowski et al, supra). The balloon was connected via a double lumen cannula to a pressure transducer and also to a saline-filled syringe for inflation/deflation of the balloon. Throughout the experiment, body temperature was kept constant at 36-38 C using a homeothermic blanket.
Once stable baseline parameters were obtained (approximately after 20 minutes), the balloon was rapidly inflated with increasing volumes of saline (0.5-2.5 ml) for 30 seconds at 5 minute intervals, and the resultant change in blood pressure recorded. Three distinct response curves were constructed, with a 10 minute stabilisation period between each curve. In one group of animals, 10 minutes prior to the commencement of the final distension response curve, a single bolus of MCI-225 (3 mg/kg) was administered intravenously; in a second group of animals, a single bolus dose of vehicle was administered. The effect of MCI-225 and vehicle was determined by analysing the changes in colorectal distension that evoked depressor response.

[2] = test system: inflammatory pain (inflamed paw); assay: Inflammatory pain, modified Randall Selitto method, paw pressure analgesiometer (Study 1); type: in vivo, rats; conditions: for Group mean (±sd) pain threshold (g) of inflamed paw at 1 hour pre-dose / Group mean (±sd) pain threshold (g) of inflamed paw at 2 hour pre-dose: baseline before dosing, 13 per group, groups later given MCI-225 30 mg/kg or indomethacin 1 mg/kg
Experimental: Three groups of rats received vehicle, indomethacin or MCI-225. There were 13 rats in each group. Inflammatory pain was induced following a modified Randall Selitto method and the pain threshold of the inflamed paw was measured using a paw pressure analgesiometer. The threshold for paw withdrawal was measured in grams at 1 and 3 hours post dose.

Structure (SMILES) | Fall in arterial blood pressure (mean absolute decrease in mean arterial pressure, SEM in brackets) evoked by balloon distension ([1]; 0.5 ml balloon volume, n=6, before drug 2.7 (1.9)) | Fall in arterial blood pressure (mean absolute decrease in mean arterial pressure, SEM in brackets) evoked by balloon distension ([1]; 1.0 ml balloon volume, n=6, before drug 12.4 (5.9)) | Fall in arterial blood pressure (mean absolute decrease in mean arterial pressure, SEM in brackets) evoked by balloon distension ([1]; 1.5 ml balloon volume, n=6, before drug 24.0 (8.9)) | Fall in arterial blood pressure (mean absolute decrease in mean arterial pressure, SEM in brackets) evoked by balloon distension ([1]; 2.0 ml balloon volume, n=6, before drug 36.3 (4.8), p<0.01 paired t test) | Fall in arterial blood pressure (mean absolute decrease in mean arterial pressure, SEM in brackets) evoked by balloon distension ([1]; 2.5 ml balloon volume, n=5, before drug 43.4 (6.0), p<0.05 paired t test) | Effect on distension-induced falls in blood pressure (in words) ([1]; MCI-225 3 mg/kg i.v., significant at 2.0 and 2.5 ml balloon volumes) | Group mean changes (±sd) in pain threshold (g) from pre-dose reading at 1 hour post-dose ([2]; 1 hour post-dose, MCI-225 30 mg/kg (oral), indomethacin 1 mg/kg, rats, * p<0.05, ** p<0.01 vs vehicle, monohydrate hydrochloride) [g] | Group mean changes (±sd) in pain threshold (g) from pre-dose reading at 3 hour post-dose ([2]; 3 hour post-dose, MCI-225 30 mg/kg (oral), indomethacin 1 mg/kg, rats, * p<0.05, ** p<0.01 vs vehicle, monohydrate hydrochloride) [g] | Analgesic activity in in vivo model of inflammatory pain (in words) ([2]; MCI-225 oral dose of 30 mg/kg versus indomethacin 1 mg/kg) | Group mean (±sd) pain threshold (g) of inflamed paw at 1 hour pre-dose ([2]; rats) [g] | Group mean (±sd) pain threshold (g) of inflamed paw at 2 hour pre-dose ([2]; rats) [g]
Cc1cc2c(-c3ccccc3F)nc(N3CCNCC3)nc2s1.Cl.O [MCI-225, 4-(2-Fluorophenyl)-6-methyl-2-(1-piperazinyl)thieno[2,3-D]pyrimidine monohydrate hydrochloride] | 2.2 (1.65) mmHg | 6.3 (2.6) mmHg | 10.6 (3.9) mmHg | 15.3 (5.4) mmHg | 24.6 (7.3) mmHg | inhibited the distension-induced falls in blood pressure | 32.3 | 66.9 | comparable to that of indomethacin | 147.7 ± 65.91 | 138.5 ± 34.72
COc1ccc2c(c1)c(CC(=O)O)c(C)n2C(=O)c1ccc(Cl)cc1 [Indomethacin, indomethacin, reference compound] | – | – | – | – | – | – | – | – | – | 166.2 ± 68.32 | 144.2 ± 41.32

From patent US20090215791A1, “NEW THERAPEUTIC USE OF 4-(2-FLUOROPHENYL)-6-METHYL-2-(1-PIPERAZINYL)THIENO[2,3-D]PYRIMIDINE” (Dynogen Pharmaceuticals, Inc., priority 2001, published 2009)
